The subject of experiment [1] is human acute monocytic leukemia cell MV-4-11 xenograft tumor. Put plainly: In-vivo efficacy of compound for MV4-11 xenograft tumor model of nude mouse. To be noted: MV4-11, po, once a day, end of experiment, MV-4-11 xenograft nude mice; for response vs control in vivo at 5 mg/kg/day / inhibition in vivo at 5 mg/kg/day: intragastric 5 mg/kg/d. Here is the method: Inhibitory effects of a compound and a positive drug on the in-vivo tumor growth of a xenograft tumor model of a nude mouse on human acute monocytic leukemia cell MV-4-11 are tested.
MV-4-11 cells in a logarithmic growth phase are harvested, resuspended after cell counting, and adjusted in cell concentration to 7.0×10^7 cells/mL. The resuspended solution is injected into the right armpit of the nude mice subcutaneously. Each animal is inoculated with 200 μL (14×10^6 cells) of the suspended solution to establish a MV-4-11 xenograft tumor model. Afer the tumor volume reaches 100-300 mm^3, tumor-bearing mice in good health and similar tumor volume are selected.
The compound and the positive drug are vortexed with a suitable solvent and then ultrasonicated to completely dissolve the compound. Then, an appropriate volume of citric acid buffer is slowly added, and the mixed solution is vortexed to make the solution mixed uniformly to obtain administrative formulations having concentrations of 0.1, 0.5, and 1 mg-mL^−1.
Solvent control group: PEG400 & citric acid buffer (20:80, v:v).
The modeled mice are randomly divided into groups (n=6), and administrated with the relevant compounds and positive drugs on the day of grouping. After 21 days or after the tumor volume of the solvent control group reaches 2000 mm^3, the experiment is terminated (whichever reaches the index first), and the administration volume is 10 mL-kg^−1. Both the compound and the positive drug are administered by gavage, once a day. After the experiment starts, the tumor diameter and animal body weight are measured twice a week, and the tumor volume is calculated.
The tumor volume(TV) calculation formula is: tumor volume(mm^3)=l×w^2/2,
The calculation formula of relative tumor volume(RTV) is: RTV=TVt/TVinitial
The calculation formula of relative tumor proliferation rate (% T/C) is: % T/C=100%×(RTVT/RTVC)

For experiment [2], the system named is MV-4-11 (human myeloid monocytic leukemia cell line). Put plainly: Proliferation inhibition activity of compounds to MV-4-11 cells (CellTiter-Glo). It counts as cell-based. To be noted: MV4-11 cells, 72 h dosing. In a few lines:
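MV-4-11 cells, plated 24 h earlier, were exposed 72 h to compounds in 10-point 3-fold dilutions (0.5% DMSO final). Viability read by CellTiter-Glo luminescence; inhibition normalized to blank and untreated controls, IC50 from variable-slope log(inhibitor)-response fit.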

Where [3] appears, read: read-out: Relative tumor proliferation rate (% T/C).
Setting [4] is: read-out: Tumor growth inhibition rate (TGI %).

As a reminder, the IC50 is the concentration that gives 50% inhibition. A high value points to lower potency. `CP(C)(=O)c1c(Nc2nc(Nc3ccc4c(c3)CC[C@@H](N3CCCC3)CC4)ncc2Cl)ccc2nccnc12` [Example 47, (S)-(6-((5-chloro-2-((7-(pyrrolidin-1-yl)-6,7,8,9-tetrahydro-5H-benzo[7]annulen-2-yl)amino)pyrimidin-4-yl)amino)quinoxalin-5-yl)dimethyl phosphine oxide]: the response vs control in vivo at 5 mg/kg/day in experiment [1] (setting [3]) turned out to be 15%. Also, the inhibition in vivo at 5 mg/kg/day in experiment [1] (setting [4]) was determined as 94%. In experiment [2], this molecule had an IC50 of 5.24 nM.

As for `CNC(=O)c1cc(F)ccc1Nc1nc(Nc2ccc3c(c2)CC[C@@H](N2CCCC2)CC3)ncc1Cl` [Example 19, (S)-2-((5-chloro-2-((7-(pyrrolidin-1-yl)-6,7,8,9-tetrahydro-5H-benzo[7]annulen-2-yl)amino)pyrimidin-4-yl)amino)-5-fluoro-N-methylhenzamide], in experiment [1] (intragastric 1 mg/kg/d, read-out: Relative tumor proliferation rate (% T/C)), the response vs control in vivo at 1 mg/kg/day came out at 28%. Moreover, in experiment [1] (intragastric 1 mg/kg/d, read-out: Tumor growth inhibition rate (TGI %)), the inhibition in vivo at 1 mg/kg/day amounted to 78%. In experiment [2], the midpoint of inhibition, the IC50, lay at 1.6 nM.

`COCc1ccc(Nc2nc(Nc3ccc4c(c3)CC[C@@H](N3CCCC3)CC4)ncc2Cl)c(P(C)(C)=O)c1` [Example 115, (S)-(2-((5-chloro-2-((7-(pyrrolidin-1-yl)-6,7,8,9-tetrahydro-5H-benzo[7]annulen-2-yl)amino)pyrimidin-4-yl)amino)-5-(methoxymethyl)phenyl)dimethylphosphine oxide]: the response vs control in vivo at 5 mg/kg/day in experiment [1] (setting [3]) is 23%. Moreover, the inhibition in vivo at 5 mg/kg/day in experiment [1] (setting [4]) was determined as 85%. In experiment [2], this molecule returned an IC50 of 6.97 nM.

For the molecule `Cc1ccc(Nc2nc(Nc3ccc4c(c3)CC[C@@H](N3CCCC3)CC4)ncc2Cl)c(P(C)(C)=O)c1` [Example 53, (S)-(2-((5-chloro-2-((7-(pyrrolidin-1-yl)-6,7,8,9-tetrahydro-5H-benzo[7]annulen-2-yl)amino)pyrimidin-4-yl)amino)-5-methylphenyl) dimethyl phosphine oxide], the response vs control in vivo at 5 mg/kg/day in experiment [1] (setting [3]) amounted to 31%. Further, the inhibition in vivo at 5 mg/kg/day in experiment [1] (setting [4]) came out at 79%. Also, the IC50 in experiment [2] came to 6.61 nM.

In the case of `CP(C)(=O)c1ccccc1Nc1nc(Nc2ccc3c(c2)CC[C@@H](N2CCCC2)CC3)ncc1Cl` [Example 10, (S)-(2-((5-chloro-2-((7-(pyrrolidin-1-yl)-6,7,8,9-tetrahydro-5H-benzo[7]annulen-2-yl)amino)pyrimidin-4-yl)amino)phenyl)dimethyl phosphine oxide], in experiment [1] (setting [3]), the response vs control in vivo at 5 mg/kg/day is 3.7%. Besides, the inhibition in vivo at 5 mg/kg/day in experiment [1] (setting [4]) came to 106%. Also, in experiment [2], the IC50 was 5.49 nM.

(Values after patent publication US20230227484A1, “PYRIMIDINE COMPOUND AS AXL INHIBITOR” (NANJING CHIA TAI TIANQING PHARMACEUTICAL CO., LTD., priority 2020, published 2023).)
